Experimental data published in PubChem BioAssay AID743267 (Broad Institute, 2014).
Several values for one entry are separate records, joined by “and”; a condition that tells them apart may be missing. Identical values can stand only once.

Tested on: human bronchial epithelial cells, CFTR corrector, plate reader
Assay: CFTR ΔF508 corrector activity in bronchial cells, dose response, human bronchial epithelial cells, plate reader, cherry-pick, two tests (AID 743267)
Conditions: measured here: test 2 replicate run

SMILES | AC50
CCOC(=O)CSC1=C(C#N)C(c2ccc(C)s2)CC(=O)N1 (stereo unspecified) | 5.6 µM
Clc1ccc(CSc2nncn2-c2ccc3c(c2)OCCO3)cc1 | 9.62 µM
C[n+]1c2cc(N)ccc2cc2ccc(N)cc21 | 3.52 µM and 2.96 µM
Cc1cc(N/N=C/c2ccccc2O)c2ccccc2n1 | 21.1 µM
C=CCCC(=O)Nc1nc(C)c(-c2csc(Nc3cc(OC)ccc3OC)n2)s1 | 10.3 µM
COc1ccc(COc2cc(-c3cccc(OC)c3)nc3ccc(NC(=O)c4ccc(OC)cc4)cc23)cc1 | 1.89 µM
NC(=O)N=Nc1c2[nH]c3ccccc3nc-2c2ccccc12 | 8.41 µM
CC(C)Oc1ncnc2c1[nH]c1ccccc12 | 9.38 µM
COc1ccc2cc(CN(CC3CCCO3)C(=S)Nc3ccccc3)c(=O)[nH]c2c1 (stereo unspecified) | > 50 µM
COc1cc(C(=O)Nc2ccc3c(c2)CCN3C(C)=O)cc(OC)c1OC | 3.56 µM
CO/N=C\CC(=O)Nc1ccc(Cl)cc1Cl | 30.9 µM
Cn1c(CC(=O)NN)c(Sc2ccccc2)c2ccccc21 | > 50 µM
COc1ccc(OC)c(-c2cnc(OC(C)(C)C)nc2OC(C)(C)C)c1 | 13.9 µM
Cc1nn(C)c(C)c1/C=C/C(=O)O | > 50 µM
CN(CC(=O)NCCc1ccc(S(N)(=O)=O)cc1)CC(=O)Nc1ccc(Cl)c(C(F)(F)F)c1 | 27.9 µM
COc1ccc(S(=O)(=O)Nc2cccc3ccc(O)cc23)cc1 | 6.82 µM
Clc1ccc2c(c1)-c1ccccc1C1=NCCN12 | 2.72 µM
COc1ccccc1NC(=O)C(=O)NCC(c1ccco1)N1CCc2ccccc21 (stereo unspecified) | > 50 µM
Cc1cccc(OCCNC(=O)c2ccc(Cl)c(S(=O)(=O)NCc3cccnc3)c2)c1 | 1.97 µM

SMILES | AC50
COc1ccc(NC(=O)c2nc(C)c(C3(C)CC(c4ccccc4)=NO3)s2)cc1 (stereo unspecified) | 3.49 µM
COc1ccc(C2=NOC(C(=O)NCc3ccc(F)cc3)C2)cc1OC (stereo unspecified) | 1.06 µM
Cc1cccc(NC(=S)N/N=C/c2cccc(O)c2)c1C | 3.86 µM
CC[C@H]1CN2CCC1C[C@H]2[C@H](O)c1ccnc2ccc(OC)cc12 (stereo partly specified) | 12.9 µM
COc1cccc(C(=O)Nc2sc3c(c2C#N)CCN(C(C)=O)C3)c1 | 1.36 µM
O=C(N/N=C/c1c(O)ccc2ccccc12)c1ccc(Br)o1 | 6.34 µM
COC(=O)c1cc2c(=O)c3ccccc3oc2nc1/C=C/N(C)C | 0.984 µM
O=C(CN1C(=O)NC2(CCCCCCC2)C1=O)Nc1ccc(Br)cc1 | 1.13 µM
O=C(CSC1=NCCN1)Nc1cccc([N+](=O)[O-])c1 | 14.1 µM
COc1cc(C2CC(=O)N(c3ccc(C)cc3)C(=O)C2)cc(OC)c1OC | 2.37 µM
COc1ccc2noc3c2c1C(=O)c1ccccc1-3 | 19.1 µM
O=c1ccc2c(-c3ccccc3)c3ccc(O)cc3oc-2c1 | 2.2 µM
CCOc1ccc2[nH]c(C(=O)N/N=C/c3ccc(OC)cc3)cc2c1 | 36.4 µM
CN(Cc1ccccc1)S(=O)(=O)c1ccc(NC(=S)NC(=O)C2CCCC2)cc1 | 5.32 µM
Cc1cc(Cl)cc(C)c1OCCn1ccnc1 | 4.68 µM
Cc1ccc(C2NC(=O)c3ccccc3N2)c(C)c1 (stereo unspecified) | 5.08 µM
O=C1c2cccc3c([N+](=O)[O-])ccc(c23)C(=O)N1Cc1cccnc1 | 10.2 µM
O=C(Nc1ccc(Br)cn1)c1cccc2ccccc12 | 1.97 µM
COc1ccc(C)cc1NC(=O)CNC(c1ccccc1)c1ccc(C)cc1 (stereo unspecified) | 2.03 µM

SMILES | AC50
Cc1ccnc(N2C(=O)c3cccc4c([N+](=O)[O-])ccc(c34)C2=O)c1 | 6.5 µM
O=Cc1ccccc1OCc1ccc2c(c1)OCO2 | 14.5 µM
N=c1sccn1CC(=O)Nc1ccc(S(N)(=O)=O)cc1 | 14.9 µM
Clc1ccc(SCc2cc(N3CCOCC3)nc(-c3ccccn3)n2)cc1 | 4.5 µM
COc1ccc(C)cc1Nc1c2c(nc3ccccc13)CCC2 | 0.708 µM
CC(=O)Nc1ccc2cc3ccc(NC(C)=O)cc3nc2c1 | 18.1 µM
CC1(C)OC(c2ccccc2)=C/C(=C/C=C2C(=O)NC(=S)NC2=O)O1 | 16.9 µM
COc1ccc2c(c1)C(O)C(CO)C(C(=O)O)C2 (stereo unspecified) | 9.28 µM
O=C1NC(=Nc2ccc(O)cc2)S/C1=C/c1ccco1 | 4.91 µM
CC1(C)OC(c2ccccc2)=C/C(=C/C=C2C(=O)NC(=O)NC2=O)O1 | 24.8 µM
CCN(C(=O)CSc1nnc(C)n1-c1ccc(C)cc1)c1c(N)n(Cc2ccccc2)c(=O)[nH]c1=O | > 50 µM
CN(C)CCNC(=O)c1ccc(Cl)c2cc3ccccc3nc12 | 5.35 µM
CC1(S(=O)(=O)O)CC(=O)c2ccccc2C1=O (stereo unspecified) | 28.6 µM
COC(=O)c1ccc(C(=O)NC2CCCc3c2cnn3-c2cc(F)cc(F)c2)nc1 (stereo unspecified) | 8.13 µM
COc1ccc(C(=O)c2cc(OC)c(OC)c(OC)c2)cc1OC | 2.72 µM
CNc1ccc2c3c(cccc13)C(=O)N(C)C2=O | 7.59 µM
COc1cc(OC)c2c(-c3cccc(-c4ccc(OC)c(OC)c4)c3)cc(=O)oc2c1 | 0.594 µM
COc1nc(-c2ccccc2)cc(-c2ccc3c(c2)OCO3)c1C#N | 3.66 µM
